According to paper PMC3938723, “Learning from Host-Defense Peptides: Cationic, Amphipathic Peptoids with Potent Anticancer Activity” (PLoS ONE, 2014):
Non-standard residues stand in square brackets, D forms with d. Residues, ends and D or L forms follow the SMILES beside them. Nspe = C[C@H](NCC(=O)O)c1ccccc1; Nlys = NCCCCNCC(=O)O

What was measured:
[1] = Analytical RP-HPLC elution as relative measure of molecular hydrophobicity; assay type: physicochemical; conditions: percentage of acetonitrile at elution, analytic RP-HPLC, C18 column, linear water/acetonitrile (0.1% trifluoroacetic acid) gradient 5%-95% acetonitrile over 30 min
Text: Peptoids were synthesized using an ABI 433A peptide synthesizer (Applied Biosystems, Inc.) on Rink amide MBHA resin (EMD Biosciences, Gibbstown, NJ) using the submonomer protocol, [24]. Briefly, the amine on the nascent chain is bromoacetylated or chloroacetylated followed by SN2 displacement of bromide or chloride by a primary amine to form the side chain. Resin-bound peptoids were then exposed to a mixture of trifluoroacetic acid (TFA): triisopropylsilane: water (95∶2.5∶2.5, volume ratio) for 10 minutes to cleave peptoids from the resin. Crude peptoids were purified by reversed-phase high performance liquid chromatography (RP-HPLC) (Waters Corporation) using a C18 column and a linear acetonitrile/water gradient. A final purity >95% as measured by analytical RP-HPLC (Waters Corporation) was achieved, and the identity of each peptoid was confirmed using electrospray ionization mass spectrometry (ESI/MS). Pexiganan was synthesized by standard Fmoc chemistry on an ABI 433A peptide synthesizer ([…]). Unless indicated otherwise, all reagents were purchased from Sigma Aldrich (St. Louis, MO). Among the submonomers used, Nspe was derived from (S)-N-(1-phenylethyl)amine; Npm from benzylamine ([…]); NHis from histamine (2-[4-imidazolyl]ethylamine); NLeu from isobutylamine; NLys from N-tert-butoxycarbonyl-1,4-butanediamine (CNH Technologies, MA). Guanidinylation of NLys was carried out according to the reported procedure. When NHis was used in the peptoid sequence, chloroacetic acid was used. 5(6)-Carboxyfluorescein was used to label the N-terminus of peptoid 1 [28].
Peptoids were utilized herein as a peptidomimetic scaffold to capture the cationic, amphipathic nature of anticancer peptides, as well as to improve molecular stability and to increase chemical diversity. The design of anticancer peptoids were derived from previous antimicrobial peptoids and were further optimized hererin to improve the activity and selectivity of peptoids against anionic membranes, [24], [25]. […] Several novel variants were designed based on peptoid 1 but with different charges, amphipathicity, length, and helicity to change their activity or selectivity. The sequences of these variants, the solvent composition at RP-HPLC elution as a relative measure of molecular hydrophobicity, molecular net charges and their charge-to-length ratio are summarized in Table 1. […] Pexiganan, a clinically-relevant peptide analog of magainin 2 which was developed for topical treatment for diabetic foot infection, and LL-37, the only known human cathelicidin which is a non-selective antimicrobial peptide, were also tested for comparison.

[2] = system: MRC-5 (fetal lung fibroblast); test: MTS cell viability assay, MRC-5; assay type: cell-based; conditions: 72 h
Description: MCF-7, MCF-7/TxT50 and OVCAR-3 (available in ATCC) were kindly provided by Professor Branimir Sikic's lab at Stanford University, and were cultured in McCoy's 5A media (GIBCO) with 10% FBS and antibiotics. Primary dermal fibroblasts were gifts from Lifeline Cell Technology and were cultured <6 passages according to the protocol Lifeline provides. All the cells were cultured in cell incubators (Thermo Scientific) at 37°C with 5% CO2.
This assay is a colorimetric method for determining the number of viable cells in proliferation. Aliquots of 100 µl media containing 1×10^4 cells were distributed into each well of a 96-well plate (BD Falcon). The following day, when cell density reaches about ∼40% confluency, the cell media were removed and replaced with serial dilutions of peptoid stocks in culturing media. For peptoid dilutions, peptoid stocks were initially diluted in media at 100 µM and then diluted by half in series using a multichannel pipette, and maintained in 100 µl media for each concentration with triple repeats. After peptoid solutions were transferred onto cells in 96-well plates, cells were incubated at 37°C for certain time periods. Then 20 µl of the CellTiter 96 Aqueous Non-Radioactive cell proliferation assay (Promega) reagent which contains a tetrazolium compound, [3-(4,5-dimethylthiazol-2-yl)-5-(3-carboxymethoxyphenyl)-2-(4-sulfophenyl)-2H-tetrazolium, inner salt; MTS(a)], was added to each well and cells were further incubated for 2 h to metabolize. The absorbance of formazan products were measured at 490 nm in a microplate reader (Molecular Devices). Percentage of cell viability = (A -A testblank)/(A control -A blank)×100, where A is the absorbance of the test well and A control the average absorbance of wells with cells not treated with peptoids. A testblank (media, MTS, and diluted peptoids) and A blank (media and MTS) were background absorbances measured in the absence of cells.
The activity and selectivity of these peptoids against cancer cells were evaluated in vitro. Their cytotoxicity was tested in three cancer cell lines, MCF-7 (human breast cancer), LNCaP (human prostate cancer), and OVCAR-3 (human ovarian cancer). To estimate the selectivity of these peptoids in vitro, hemolytic activities of some peptoids were cited from previously published work (Table 2 **column), and the MRC-5 cell line (human fibroblasts derived from fetal lung tissues) and primary dermal fibroblasts were also tested as normal cell controls. Briefly, cells were treated with peptoids diluted in culturing media for certain time periods, and then cell viability was measured via MTS assays.

[3] = system: human breast cancer xenograft; test: Human breast cancer orthotopic xenograft mouse model, tumor growth; assay type: in vivo; conditions: ~1 mg/kg (100 µl of 110 µM in PBS) injected into mammary fat pad three times a week, NSG mice, versus control peptoid 1 11mer-NLeu; caliper; P = 0.0014, t test
Description: 80,000 cells from a dissociated second generation metastatic breast cancer tumor were suspended in Medium 199 containing 25% Matrix Matrigel (Becton Dickinson 354248) and injected into the mammary fat pad of 4–8 week old NOD.Cg-Prkdc^scid Il2rg^tm1Wjl/SzJ (NSG) mice. After two weeks, 100 µl PBS containing 110 µM peptoid 1 or control peptide was injected into the mammary fat pad three times a week, roughly at a dose of 1 mg/kg. Tumor volumes were determined using direct caliper measurements following […] of treatment.
Human breast cancer cells were implanted in the mammary fat pad of immunocompromised mice.
Figure 5 Reduction of tumor volumes in a human breast cancer xenograft mouse model treated with peptoid 1. Cancer cells (8×10^4 cells) isolated from the second generation xenografts of human breast cancer tissues were implanted s.c. into the lower left mammary fat pads of 5–6-week-old immunocompromised NSG (NOD.Cg-Prkdc^scid Il2rg^tm1Wjl/SzJ) female mice. Two weeks after cell implantation, 100 µl of peptoid 1 and control peptoids were injected into xenografts at 110 µM in PBS (∼1 mg/kg) three times a week, up to 8 weeks. Tumor sizes were measured by a caliper. P = 0.0014, t test.

Compound: C[C@@H](c1ccccc1)N(CC(N)=O)C(=O)CN(C(=O)CN(CCCCN)C(=O)CN(C(=O)CN(C(=O)CN(CCCCN)C(=O)CN(C(=O)CN(C(=O)CN(CCCCN)C(=O)CN(C(=O)CN(C(=O)CNCCCCN)[C@@H](C)c1ccccc1)[C@@H](C)c1ccccc1)[C@@H](C)c1ccccc1)[C@@H](C)c1ccccc1)[C@@H](C)c1ccccc1)[C@@H](C)c1ccccc1)[C@@H](C)c1ccccc1 [Peptoid 1, H-(NLys-Nspe-Nspe)4-NH2] (H-[Nlys][Nspe][Nspe][Nlys][Nspe][Nspe][Nlys][Nspe][Nspe][Nlys][Nspe][Nspe]-NH2)
- HPLC elution [1]: 65.1 % ACN
- LC50 MRC-5 (fetal lung fibroblast) [2]: 8 µM
- tumor growth [3]: significantly inhibited the tumor growth
